Tests used:
[1] = system: anti-fullerene antibodies; experiment: Double diffusion in agar; assay type: binding, BALB/c mice
Description: Immunization Procedure and Detection of Antibodies. BALB/c mice were immunized i.p. with 1-TG in complete Freund's adjuvant for the primary immunization and incomplete adjuvant for subsequent immunizations.
(§1) Specificity of the resp)onse was determined by two procedures: double diffusion in agar (22) and competitive inhibition, as determined by ELISA using RSA and BSA conjugates of the fullerenes, as well as the oligo lysine derivatives. The fullerenes themselves were not soluble enough in aqueous solutions.
Specificity of the response was determined by two procedures: Double diffusion in agar and competitive inhibition, as determined by ELISA using RSA and BSA conjugates of the fullerenes, as well as the oligo lysine derivatives. The fullerenes themselves were not soluble enough in aqueous solutions.

[2] = system: anti-fullerene antibodies; experiment: ELISA competitive inhibition of antibody binding to 1-RSA; design: species or system BALB/c mice
Description: After a total of three immunizations at 3-week intervals, confirmation of an immune response was determined by direct ELISA in which polystyrene plates (Corning) were coated with the 1-RSA conjugate (0.5 mg/ml in 0.1 M NaHCO3, pH 9), and binding of preimmune and immune sera were determined by standard procedures. Development was with horseradish peroxidase-labeled goat anti-mouse IgG (Sigma), which tested negative for crossreaction with an IgM preparation. The substrate used was o-phenylenediamine.
as §1
The adenosine conjugate had been synthesized using the same strategy used for the fullerenes, i.e., linkage to the epsilon amino groups of the lysines via an N-hydroxysuccinimide ester derivative.

[3] = system: human keratinocytes and fibroiblasts; conditions: cited from earlier work
[4] = Air sensitivity; assay type: physicochemical
Text: While previous work reported in the literature performed HPLC under aerobic conditions, (see for example Funasaka et al. 1995) these studies determined that anaerobic controls better preserved the fraction of Gd@C82 in solution. […] The fraction containing the Gd@C82 was identified using MS. The solubility of fullerenes in o-xylene is about three times that of toluene and this greatly increases the ratio of fullerenes in solution to those retained on the stationary phase. Therefore, the capacity or amount of fullerenes purified per injection was very large. Each injection contained 2 ml of saturated fullerene o-xylene solution (about 30 mg of fullerenes).

[5] = system: Sprague-Dawley rats; experiment: γ-camera imaging study; assay type: in vivo; conditions: IP
Description: The biodistribution in mice of hydroxylated lanthanide-C82 encapsulates is under current investigation. The results presented here are regarded as preliminary as the sample is still small. Studies continue under a NIH Phase I grant. The neutron irradiated samples, along with a ^166Ho^3+ control sample, were used to perform a γ-camera imaging study on four 300 g Sprague-Dawley rats. Two rats were injected intraperitoneally (IP) with 54 and 18 μCi of ^166Ho activity from samples containing irradiated Ho-metallofullerois. Two control studies were performed by IP administration of approximately 660 μCi of ^166Ho^3+ in a 1% sodium citrate buffer. The anesthetized rats were scanned side-by-side on a single stage with a γ-camera starting 1 hour after injection and periodically thereafter over the ensuing 48 hours.

## bovine thyroglobulin [TG]
[1]; TG solution diluted 5-fold
  precipitation with immune serum in double diffusion in agar: a line of precipitation was seen
[1]; serum of mice immunized with 1-TG
  precipitation with immune serum in double diffusion in agar: no visible precipitate
[2]
  inhibition of antibody binding to 1-RSA: No inhibition

## c12c3c4c5c1c1c6c7c2c2c8c3c3c9c4c4c%10c5c5c1c1c6c6c%11c7c2c2c7c8c3c3c8c9c4c4c9c%10c5c5c1c1c6c6c%11c2c2c7c3c3c8c4c4c9c5c1c1c6c2c3c41 [Compound C60, fullerene-C60]
[3]
  effect on rate of thymidine uptake: no effect

## Gd@C82(OH)x
[4]
  air sensitivity: does not appear to be air sensitive

## [166Ho+3] [^166Ho^3+]
[5]; after 24 hours
  excretion of 166Ho activity: essentially all ^166Ho activity had been excreted
[5]; commencing 1 hour post-injection
  urinary clearance: rapid ^166Ho^3+ urinary clearance

## Rabbit Serum Albumin [RSA]
[2]
  inhibition of antibody binding to 1-RSA: No inhibition
